Assay results published in BindingDB's records for doi:10.1021/jm00081a005 (University of Wisconsin-Madison, 1992).
pKi: −log10 of the molar value.

Assay: Compound was tested for binding affinity towards cytosolic aminopeptidase

pKi: < 3.22
SMILES: CC(=O)[C@@H](N)CC(C)C
